Assay results from patent publication US11104661B1, “Inhibiting human integrin (α-4) (β-7)” (Morphic Therapeutic, Inc., priority 2019, dated 2021).

These compounds were tested against T1, integrin α4β7 (Homo sapiens, UniProt P13612+P26010) (assay: Fluorescence polarization (FP) assay for α4β7 binding (Example 5)). Settings: competition with fluorescein-labeled peptide, 6.5 nM integrin α4β7, 2 mM manganese chloride; Table 3.
T1 sequence (P13612 35-977 limits assumed): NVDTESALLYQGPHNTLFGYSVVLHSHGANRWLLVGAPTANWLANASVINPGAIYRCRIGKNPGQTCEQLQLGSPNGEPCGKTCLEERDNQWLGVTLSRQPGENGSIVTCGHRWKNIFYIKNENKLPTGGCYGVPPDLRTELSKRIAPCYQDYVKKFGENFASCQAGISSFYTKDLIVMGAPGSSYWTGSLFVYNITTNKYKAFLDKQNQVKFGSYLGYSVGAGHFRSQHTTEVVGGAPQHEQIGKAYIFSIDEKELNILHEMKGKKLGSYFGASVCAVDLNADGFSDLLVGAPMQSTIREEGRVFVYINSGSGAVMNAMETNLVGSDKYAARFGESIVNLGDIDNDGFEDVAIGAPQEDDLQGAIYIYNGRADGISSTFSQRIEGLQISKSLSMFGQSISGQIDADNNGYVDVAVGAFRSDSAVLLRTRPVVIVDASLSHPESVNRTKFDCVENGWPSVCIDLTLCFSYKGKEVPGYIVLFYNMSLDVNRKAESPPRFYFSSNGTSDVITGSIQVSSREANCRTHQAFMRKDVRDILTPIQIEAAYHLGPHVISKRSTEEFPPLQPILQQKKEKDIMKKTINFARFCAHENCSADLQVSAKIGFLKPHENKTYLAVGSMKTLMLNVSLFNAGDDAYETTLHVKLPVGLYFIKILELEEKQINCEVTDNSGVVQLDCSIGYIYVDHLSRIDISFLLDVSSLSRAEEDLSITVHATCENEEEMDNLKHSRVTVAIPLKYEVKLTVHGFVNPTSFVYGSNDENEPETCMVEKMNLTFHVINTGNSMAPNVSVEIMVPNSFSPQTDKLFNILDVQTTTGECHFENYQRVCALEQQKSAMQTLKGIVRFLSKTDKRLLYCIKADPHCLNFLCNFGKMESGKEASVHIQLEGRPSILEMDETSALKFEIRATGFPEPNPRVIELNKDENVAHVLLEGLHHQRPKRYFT
T1 sequence (P26010 20-723 limits assumed): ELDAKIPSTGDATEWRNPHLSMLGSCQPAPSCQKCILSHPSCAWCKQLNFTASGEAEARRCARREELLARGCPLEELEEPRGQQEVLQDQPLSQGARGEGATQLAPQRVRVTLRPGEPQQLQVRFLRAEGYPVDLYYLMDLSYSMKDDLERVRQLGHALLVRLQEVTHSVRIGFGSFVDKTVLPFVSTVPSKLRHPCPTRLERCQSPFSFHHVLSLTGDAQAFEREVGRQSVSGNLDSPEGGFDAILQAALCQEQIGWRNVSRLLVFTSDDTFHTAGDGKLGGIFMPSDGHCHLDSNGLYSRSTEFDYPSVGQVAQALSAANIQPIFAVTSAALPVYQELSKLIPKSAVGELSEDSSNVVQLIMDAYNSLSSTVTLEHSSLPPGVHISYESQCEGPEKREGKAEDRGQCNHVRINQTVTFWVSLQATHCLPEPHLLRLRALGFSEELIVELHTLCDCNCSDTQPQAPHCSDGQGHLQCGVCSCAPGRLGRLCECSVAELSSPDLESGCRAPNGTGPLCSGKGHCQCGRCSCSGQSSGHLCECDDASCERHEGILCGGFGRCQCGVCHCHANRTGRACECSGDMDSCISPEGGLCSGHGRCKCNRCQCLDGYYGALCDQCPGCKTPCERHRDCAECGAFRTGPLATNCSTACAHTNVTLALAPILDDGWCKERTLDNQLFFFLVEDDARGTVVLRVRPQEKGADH
Method: Compounds of Formula (I) were evaluated using a fluorescent polarization (FP) assay. FP assays are used to evaluate potency of compounds on purified protein. The FP assays consists of measuring purified integrin αβ heterodimer ecto domains or headpiece binding to surrogate or truncated ligands.
Three in vitro assays were used to examine the α4β7 mechanistic process used by cells: 1) ligand:receptor affinity, 2) the avidity of those interactions on a cell's surface, and 3) how those interactions fare under an imposing force. In Example 5, a Fluorescence Polarization (FP) assay is used to measure compound activity through binding competition with the fluorescein-labeled peptide. In Example 6, the potency of compounds against α4β7 is measured in the cell-based ligand binding assay (LBA), using RPMI 8866 cells incubated with the compound samples in competition with soluble MAdCAM-1 ligand. In Example 7, activity of compounds is evaluated in a cell adhesion assay that mechanistically tests what occurs in vivo when trafficking cells utilize α4β7 to adhere to MAdCAM-1 expressing HEVs of the gut during the extravasation process. In the cell adhesion assay of Example 7, a MAdCAMI1-(Fc) is coated on plastic, and α4β7 expressing cells (RPMI-8866) are allowed to adhere to the coated surface in the presence of the test compounds. Next, the force of washing with buffer is applied to cells thereby testing the strength of that adhesion. Unattached cells are removed and the remaining adherent cells are quantified.
Fluorescence Polarization (FP) assays were used to measure compound activity through binding competition with the fluorescein-labeled peptide […]{Lys(FITC)}. In the assay, 6.5 nM of integrin α4β7 was incubated with the test compound in 2 mM manganese chloride, 0.1 mM calcium chloride, 20 mM HEPES buffer at pH 7.3, 150 mM sodium chloride, 0.01% Triton X-100, 2% DMSO, and 3 nM of the fluorescein-labeled peptide. Running the assays in 384-well plates, the integrin protein was pre-incubated with the test compounds for 15 minutes at 22° C. before the fluorescein-labeled peptide was added. After the fluorescein-labeled peptide was added, the assay was incubated at 22° C. for 1 hour and fluorescence polarization was measured. IC50 values were determined by nonlinear regression, four-parameter curve fitting.
`Cc1cc(-c2c(C)cccc2C)cc([C@H](CC(=O)O)NC(=O)C(CC(C)C)n2cc(CCN3CC[C@@H](F)C3)cc(F)c2=O)c1F` (single isomer, unassigned) [AU-P2] gave an IC50 of at most 10 nM.
`Cc1cc(-c2c(C)cccc2C)cc([C@H](CC(=O)O)NC(=O)C(CC(C)C)n2cc(CCN3CC(F)C3)cc(F)c2=O)c1F` (single isomer, unassigned) [AV-P2] showed an IC50 of at most 10 nM.
`Cc1cc(-c2c(C)ccc(F)c2C)cc([C@H](CC(=O)O)NC(=O)C(CC(C)C)n2cc(CCN3CCC3)c(C(F)(F)F)cc2=O)c1F` (single isomer, unassigned) [AF-P2] was tested, and the IC50 was at most 10 nM.
With `COc1ccc(C)c(-c2cc(C)c(F)c([C@H](CC(=O)O)NC(=O)C(CC(C)C)n3cc(CCN4CCC4)c(C(F)(F)F)cc3=O)c2)c1C` (single isomer, unassigned) [AG-P2] the IC50 was at most 10 nM.
With `Cc1cc(C)c(-c2cc(C)c(F)c([C@H](CC(=O)O)NC(=O)C(CC(C)C)n3cc(CCN(C)C)c(C(F)(F)F)cc3=O)c2)c(C)c1` (single isomer, unassigned) [AC-P2] the IC50 was at most 10 nM.
`Cc1cccc(C)c1-c1cc([C@H](CC(=O)O)NC(=O)C(CC(C)C)n2cc(CCN3CCC3)c(C(F)(F)F)cc2=O)c(F)c(C(F)(F)F)c1` (single isomer, unassigned) [G-P2] gave an IC50 of at most 10 nM.

Same assay, conditions: competition with fluorescein-labeled peptide, 6.5 nM integrin α4β7, 2 mM manganese chloride; Table 4 comparative compounds
Work on `CC(C)C[C@@H](C(=O)N[C@@H](CC(=O)O)c1ccc(-c2ccccc2)cc1)n1cc(CCN(C)C)c(C(F)(F)F)cc1=O` yielded an IC50 of 10 to 500 nM.
`CC(C)C[C@@H](C(=O)N[C@@H](CC(=O)O)c1ccc(-c2ccc(F)cc2)cc1)n1cc(CCN2CC(F)C2)cc(F)c1=O` showed an IC50 of at most 10 nM.
In the case of `Cc1cccc(C)c1-c1cncc([C@H](CC(=O)O)NC(=O)[C@H](CC(C)C)n2ccc(C(F)(F)F)cc2=O)c1`, the IC50 is reported as at most 10 nM.
`Cc1ccccc1-c1cccc([C@H](CC(=O)O)NC(=O)[C@H](CC(C)C)n2ccccc2=O)c1` was tested, and the IC50 was 10 to 500 nM.
In the case of `Cc1cccc(C)c1-c1cccc([C@H](CC(=O)O)NC(=O)[C@H](CC(C)C)n2cc(CN3CC(F)C3)ccc2=O)c1` [drawing 599], the IC50 is reported as at most 10 nM.
`Cc1cccc(C)c1-c1cccc([C@H](CC(=O)O)NC(=O)[C@H](CC(C)C)n2cccc(CCN(C)C)c2=O)c1` gave an IC50 of at most 10 nM.
Compound `Cc1cccc(C)c1-c1cncc([C@H](CC(=O)O)NC(=O)[C@H](CC(C)C)n2ccccc2=O)c1` has an IC50 of at most 10 nM.
Work on `Cc1cccc(C)c1-c1cncc([C@H](CC(=O)O)NC(=O)C(CC(C)C)n2cc(C(F)(F)F)ccc2=O)c1` (some centres unmarked) yielded an IC50 of at most 10 nM.
`Cc1ccn([C@@H](CC(C)C)C(=O)N[C@@H](CC(=O)O)c2cncc(-c3c(C)cccc3C)c2)c(=O)c1` was tested, and the IC50 was at most 10 nM.
`Cc1ccc([C@@H](C(=O)N[C@@H](CC(=O)O)c2cncc(-c3c(C)cccc3C)c2)N2CC(C)CCC2=O)cc1` (some centres unmarked) showed an IC50 of at most 10 nM.
In the case of `Cc1ccccc1-c1cccc([C@H](CC(=O)O)NC(=O)[C@H](CC(C)C)n2ccncc2=O)c1`, the IC50 is reported as 10 to 500 nM.
For `COc1ccc([C@H](CC(=O)O)NC(=O)C(CC(C)C)n2ccccc2=O)cc1-c1ccccc1C` (some centres unmarked), the IC50 was 10 to 500 nM.
Compound `Cc1cccc(C)c1-c1cccc([C@H](CC(=O)O)NC(=O)[C@H](CC(C)C)n2cc(CN3CC(F)C3)ccc2=O)c1` [drawing 572] has an IC50 of at most 10 nM.
Work on `Cc1cccc(C)c1-c1cc([C@H](CC(=O)O)NC(=O)[C@H](CC(C)C)n2ccccc2=O)ccn1` yielded an IC50 of 10 to 500 nM.
`Cc1cccc(C)c1-c1cccc([C@H](CC(=O)O)NC(=O)[C@H](CC(C)C)n2cc(CN3CC(F)C3)ccc2=O)c1` [drawing 585] was tested, and the IC50 was at most 10 nM.
`CC(C)C[C@@H](C(=O)N[C@@H](CC(=O)O)c1ccc(-c2ccc(F)cc2)cc1)n1cc(CCN(C)C)c(C(F)(F)F)cc1=O` was tested, and the IC50 was at most 10 nM.
Work on `Cc1cccc(C)c1-c1cccc([C@H](CC(=O)O)NC(=O)[C@H](CC(C)C)n2cc(CN3CC(F)C3)ccc2=O)c1` [drawing 604] yielded an IC50 of at most 10 nM.
For `COc1cccc(F)c1-c1cccc([C@H](CC(=O)O)NC(=O)[C@H](CC(C)C)n2cnc3ccccc3c2=O)c1`, the IC50 was 10 to 500 nM.
`Cc1ccccc1-c1cccc([C@H](CC(=O)O)NC(=O)[C@H](CC(C)C)n2cccc(C)c2=O)c1` showed an IC50 of at most 10 nM.
`Cc1cccc(C)c1-c1cccc([C@H](CC(=O)O)NC(=O)[C@H](CC(C)C)n2cc(CN3CC(F)C3)ccc2=O)c1` [drawing 577] gave an IC50 of at most 10 nM.
`Cc1cccc(C)c1-c1cccc([C@H](CC(=O)O)NC(=O)[C@H](CC(C)C)n2cc(CN3CC[C@@H](F)C3)ccc2=O)c1` gave an IC50 of at most 10 nM.
Compound `Cc1cccc(C)c1-c1cccc([C@H](CC(=O)O)NC(=O)[C@H](CC(C)C)n2cc(CCN(C)C)ccc2=O)c1` has an IC50 of at most 10 nM.
With `Cc1cccc(C)c1-c1cncc([C@H](CC(=O)O)NC(=O)[C@H](CC(C)C)N2CC[C@@H](C(F)(F)F)CC2=O)c1` the IC50 was at most 10 nM.
`Cc1cccc(C)c1-c1cccc([C@H](CC(=O)O)NC(=O)[C@H](CC(C)C)n2cc(CN3CC(F)C3)ccc2=O)c1` [drawing 594] showed an IC50 of at most 10 nM.
Work on `Cc1cccc(C)c1-c1cncc([C@H](CC(=O)O)NC(=O)[C@H](CC(C)C)n2cc(CN3CC(F)C3)ccc2=O)c1` yielded an IC50 of at most 10 nM.
For `COC[C@@H](C(=O)N[C@@H](CC(=O)O)c1cccc(-c2c(C)cccc2C)c1)n1ccc(C)cc1=O`, the IC50 was 10 to 500 nM.
For `CC(C)C[C@@H](C(=O)N[C@@H](CC(=O)O)c1ccc(-c2ccccc2)cc1)n1cc(CCN2CC(F)C2)cc(F)c1=O`, the IC50 was at most 10 nM.
Compound `Cc1cccc(C)c1-c1cccc([C@H](CC(=O)O)NC(=O)[C@H](CC(C)C)n2ccc(CCN(C)C)cc2=O)c1` has an IC50 of at most 10 nM.
In the case of `Cc1ccccc1-c1cc([C@H](CC(=O)O)NC(=O)[C@H](CC(C)C)n2ccccc2=O)ccc1C`, the IC50 is reported as 10 to 500 nM.
Work on `Cc1ccccc1-c1cc([C@H](CC(=O)O)NC(=O)C(CC(C)C)n2ccccc2=O)ccn1` (some centres unmarked) yielded an IC50 of 10 to 500 nM.
Work on `Cc1cccc(C)c1-c1cccc([C@H](CC(=O)O)NC(=O)[C@H](CC(C)C)n2cc(CN3CC(F)C3)ccc2=O)c1` [drawing 589] yielded an IC50 of at most 10 nM.
Compound `Cc1ccccc1-c1cc([C@H](CC(=O)O)NC(=O)C(CC(C)C)n2ccccc2=O)ccc1C#N` (some centres unmarked) has an IC50 of at most 10 nM.
